Data as given in patent publication US11655246B2, “Aminothiazole compounds as inhibitors of CTPS1” (STEP PHARMA S.A.S., priority 2017, dated 2023).

target: T1, human CTPS1 (Homo sapiens, UniProt P17812); assay: Human CTPS1 enzyme inhibition (ADP-Glo Max assay); format: biochemical; settings: Table 17, 25° C., read-out: CTPS1 (Human CTPS1 Enzyme Inhibition data grouped by potency range)
T1 construct: purchased Proteros biostructures GmbH
T1 sequence (P17812 1-591): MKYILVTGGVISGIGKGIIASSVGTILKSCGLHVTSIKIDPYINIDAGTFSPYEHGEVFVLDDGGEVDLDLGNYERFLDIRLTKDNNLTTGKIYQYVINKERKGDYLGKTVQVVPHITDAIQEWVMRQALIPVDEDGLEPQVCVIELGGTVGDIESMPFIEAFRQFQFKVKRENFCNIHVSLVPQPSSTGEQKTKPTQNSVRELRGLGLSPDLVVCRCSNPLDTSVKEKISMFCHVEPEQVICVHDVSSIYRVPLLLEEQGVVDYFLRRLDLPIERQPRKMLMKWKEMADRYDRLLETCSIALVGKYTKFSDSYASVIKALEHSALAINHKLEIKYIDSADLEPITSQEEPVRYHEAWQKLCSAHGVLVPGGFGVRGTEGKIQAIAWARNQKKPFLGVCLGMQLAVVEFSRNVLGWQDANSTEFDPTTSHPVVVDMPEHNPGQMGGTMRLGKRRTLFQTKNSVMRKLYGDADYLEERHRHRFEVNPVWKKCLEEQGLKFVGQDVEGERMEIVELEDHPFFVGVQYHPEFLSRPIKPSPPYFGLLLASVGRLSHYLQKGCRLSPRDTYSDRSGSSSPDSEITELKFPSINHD
Protocol: The enzyme inhibitory activities of compounds invented against the target of interest were determined using the ADP-Glo™ Max assay (Promega, UK). Assays for human CTPS1 were performed in 1× assay buffer containing 50 mM Tris, 10 mM MgCl2, 0.01% Tween-20, pH to 8.0 accordingly. Finally, immediately before use, L-cysteine was added to the 1× assay buffer to a final concentration of 2 mM. All reagents are from Sigma-Aldrich unless specified otherwise.
3× human CTPS1 protein was prepared in 1× assay buffer to the final working protein concentration required for the reaction. A 2 uL volume per well of 3× human CTPS1 protein was mixed with 2 uL per well of 3× test compound (compound prepared in 1× assay buffer to an appropriate final 3× compound concentration respective to the concentration response curve designed for the compounds under test) for 10 minutes at 25° C. […] ADP-Glo™ Max reagent was added for 60 minutes (6 uL per well) and subsequently ADP-Glo™ Max development reagent was added for 60 minutes (12 uL per well) prior to signal detection in a microplate reader (EnVision® Multilabel Reader, Perkin Elmer). Following each reagent addition over the course of the assay, assay plates were pulse centrifuged for 30 seconds at 500 rpm.
In all cases, the enzyme converts ATP to ADP and the ADP-Glo™ Max reagent subsequently depletes any remaining endogenous ATP in the reaction system. The ADP-Glo™ Max detection reagent converts the ADP that has been enzymatically produced back into ATP and using ATP as a substrate together with luciferin for the enzyme luciferase, light is generated which produces a detectable luminescence. […] The percentage inhibition produced by each concentration of compound was calculated using the equation shown below: […]

Row | IC50 | Compound
1 | 100 to 1000 nM | CC(C)(C(=O)Nc1ncc(-c2cncc(C#N)c2)cn1)c1csc(NS(=O)(=O)C2CC2)n1 [T20, N-(5-(5-cyanopyridin-3-yl)pyrimidin-2-yl)-2-(2-(cyclopropanesulfonamido)thiazol-4-yl)-2-methylpropanamide]
2 | 100 to 1000 nM | CC(C(=O)Nc1ccc(-c2cccnc2)nc1)c1csc(NS(=O)(=O)C2CC2)n1 (centres unmarked) [T27]
3 | < 100 nM | CC(C)(C(=O)Nc1ccc(-c2cncnc2)cc1)c1csc(NS(=O)(=O)C2CC2)n1 [T18, 2-(2-(cyclopropanesulfonamido)thiazol-4-yl)-2-methyl-N-(4-(pyrimidin-5-yl)phenyl)propanamide]
4 | < 100 nM | N#Cc1cncc(-c2ccc(NC(=O)C3CCc4sc(NS(=O)(=O)C5CC5)nc43)cc2)c1 (centres unmarked) [T217]
5 | < 100 nM | COCCC(C(=O)Nc1ccc(-c2cncc(Cl)c2)cc1)c1csc(NS(=O)(=O)C2CC2)n1 (centres unmarked) [T71]
6 | 100 to 1000 nM | CC(C)(C(=O)Nc1ccc(-c2cnccn2)c(F)c1)c1csc(NS(=O)(=O)C2CC2)n1 [T39]
7 | 100 to 1000 nM | CCOc1cncc(-c2ccc(NC(=O)C(C)(C)c3nc(NS(=O)(=O)C4CC4)sc3C)cc2)n1 [T317]
8 | < 100 nM | CCC(C(=O)Nc1ccc(-c2cncc(OCC(F)(F)F)c2)cc1F)c1csc(NS(=O)(=O)C2CC2)n1 (centres unmarked) [T212]
9 | 100 to 1000 nM | O=C(Nc1ccc(-c2cccnc2)cc1)C1CCCc2sc(NS(=O)(=O)C3CC3)nc21 (centres unmarked) [T84]
10 | < 100 nM | CC(C)OC(C(=O)Nc1ccc(-c2cncc(C(F)(F)F)n2)cn1)c1csc(NS(=O)(=O)C2CC2)n1 (centres unmarked) [T172]
11 | < 100 nM | CC(C)OC(C(=O)Nc1ccc(-c2cncc(Cl)c2)cc1)c1csc(NS(=O)(=O)C2CC2)n1 (centres unmarked) [T58]
12 | 100 to 1000 nM | CCC(C(=O)Nc1ccc(-c2cncc(OCC(F)(F)F)n2)cc1)c1csc(NS(=O)(=O)C2CC2)n1 (single isomer, unassigned) [T222]
13 | < 100 nM | CCC(C(=O)Nc1ccc(-c2cncc(C(F)(F)F)n2)cc1F)c1csc(NS(=O)(=O)C2CC2)n1 (centres unmarked) [T197]
14 | < 100 nM | CCC(C(=O)Nc1ccc(-c2cncc(Cl)c2)cc1F)c1csc(NS(=O)(=O)C2CC2)n1 (centres unmarked) [T203]
15 | 100 to 1000 nM | O=C(Nc1ccc(-c2cccnc2)cc1)C1CCc2sc(NS(=O)(=O)C3CC3)nc21 (centres unmarked) [T213]
16 | 100 to 1000 nM | CCC(C(=O)N(C)c1ccc(-c2cncc(C#N)c2)cc1)c1csc(NS(=O)(=O)C2CC2)n1 (centres unmarked) [T316]
17 | 100 to 1000 nM | CCC(C(=O)Nc1ccc(-c2cnccn2)cc1)c1csc(NS(=O)(=O)C2CC2)n1 (centres unmarked) [T70]
18 | < 100 nM | CCCOc1cncc(-c2ccc(NC(=O)C(CC)c3csc(NS(=O)(=O)C4CC4)n3)nc2)n1 (centres unmarked) [T173]
19 | < 100 nM | COC(C(=O)Nc1ccc(-c2cncc(C(F)(F)F)n2)cn1)c1csc(NS(=O)(=O)C2CC2)n1 (centres unmarked) [T214]
20 | 100 to 1000 nM | Cc1ncccc1-c1ccc(NC(=O)Cc2csc(NS(=O)(=O)C3CC3)n2)cc1 [T100]
21 | 100 to 1000 nM | CC(C)(C(=O)Nc1ccc(-c2cccc(Cl)c2)cc1)c1csc(NS(=O)(=O)C2CC2)n1 [T87]

same assay, conditions: Table 18, additional potency data, 25° C., read-out: CTPS1 (Human CTPS1 Enzyme Inhibition data grouped by potency range)

Row | IC50 | Compound
22 | < 100 nM | CCOc1cncc(-c2ccc(NC(=O)C(C)(C)c3csc(NS(=O)(=O)CC4CC4)n3)c(F)c2)n1 [T433]
23 | 1000 to 10000 nM | CC(C)(C(=O)Nc1ccc(-c2cncc(O)n2)cc1)c1csc(NS(=O)(=O)C2CC2)n1 [T379, 2-(2-(cyclopropanesulfonamido)thiazol-4-yl)-N-(4-(6-hydroxypyrazin-2-yl)phenyl)-2-methylpropanamide]
24 | 100 to 1000 nM | COC(C)(C)c1cncc(-c2ccc(NC(=O)C(C)(C)c3csc(NS(=O)(=O)C4CC4)n3)c(F)c2)n1 [T353, 2-(2-(cyclopropanesulfonamido)thiazol-4-yl)-N-(2-fluoro-4-(6-(2-methoxypropan-2-yl)pyrazin-2-yl)phenyl)-2-methylpropanamide]
25 | 100 to 1000 nM | CCC(C(=O)Nc1ccc(-c2cncc(C#N)n2)cc1F)c1csc(NS(=O)(=O)C2CC2)n1 (centres unmarked) [T404, N-(4-(6-cyanopyrazin-2-yl)-2-fluorophenyl)-2-(2-(cyclopropanesulfonamido)thiazol-4-yl)butanamide]
26 | 1000 to 10000 nM | CCC(C(=O)Nc1ccc(-c2cncc(C(C)(C)OC)n2)cn1)c1csc(NS(=O)(=O)C2CC2)n1 (centres unmarked) [T402, 2-(2-(cyclopropanesulfonamido)thiazol-4-yl)-N-(5-(6-(2-methoxypropan-2-yl)pyrazin-2-yl)pyridin-2-yl)butanamide]
27 | < 100 nM | CCS(=O)(=O)Nc1nc(C(C)(C)C(=O)Nc2ccc(-c3cncc(C(F)(F)F)n3)cc2)cs1 [T387, 2-(2-(ethylsulfonamido)thiazol-4-yl)-2-methyl-N-(4-(6-(trifluoromethyl)pyrazin-2-yl)phenyl)propanamide]
28 | < 100 nM | CCOc1cncc(-c2ccc(NC(=O)C(CC)c3csc(NS(=O)(=O)C4CC4)n3)c(C#N)c2)n1 (centres unmarked) [T440]
29 | < 100 nM | CC(C)(C(=O)Nc1ccc(-c2cncc(F)c2)cc1C(F)(F)F)c1csc(NS(=O)(=O)C2CC2)n1 [T345, 2-(2-(cyclopropanesulfonamido)thiazol-4-yl)-N-(4-(5-fluoropyridin-3-yl)-2-(trifluoromethyl)phenyl)-2-methylpropanamide]
30 | 100 to 1000 nM | CC(C)c1cc(-c2cncc(C(F)(F)F)n2)ccc1NC(=O)C(C)(C)c1csc(NS(=O)(=O)C2CC2)n1 [T361, 2-(2-(cyclopropanesulfonamido)thiazol-4-yl)-N-(2-isopropyl-4-(6-(trifluoromethyl)pyrazin-2-yl)phenyl)-2-methylpropanamide]
31 | 100 to 1000 nM | Cc1cc(NC(=O)C(C)(C)c2csc(NS(=O)(=O)C3CC3)n2)c(F)cc1-c1cncc(Cl)c1 [T352, N-(4-(5-chloropyridin-3-yl)-2-fluoro-5-methylphenyl)-2-(2-(cyclopropanesulfonamido)thiazol-4-yl)-2-methylpropanamide]
32 | 100 to 1000 nM | CCC(C(=O)Nc1ccc(-c2cncc(C(C)(C)OC)n2)cc1F)c1csc(NS(=O)(=O)C2CC2)n1 (centres unmarked) [T403, 2-(2-(cyclopropanesulfonamido)thiazol-4-yl)-N-(2-fluoro-4-(6-(2-methoxypropan-2-yl)pyrazin-2-yl)phenyl)butanamide]
33 | 100 to 1000 nM | COc1cncc(-c2ccc(N3CCC(c4csc(NS(=O)(=O)C5CC5)n4)C3=O)cc2)c1 (centres unmarked) [T463]
34 | < 100 nM | CCOc1cncc(-c2cnc(NC(=O)C(CC)c3csc(NS(=O)(=O)C4CC4)n3)c(F)c2)n1 (single isomer, unassigned) [T456]
35 | < 100 nM | CC(C)(C(=O)Nc1ccc(-c2cncc(C(F)(F)F)n2)cc1F)c1csc(NS(C)(=O)=O)n1 [T391, N-(2-fluoro-4-(6-(trifluoromethyl)pyrazin-2-yl)phenyl)-2-methyl-2-(2-(methylsulfonamido)thiazol-4-yl)propanamide]
36 | 100 to 1000 nM | CCS(=O)(=O)Nc1nc(C(C)(C)C(=O)Nc2ccc(-c3cccnc3)cc2)cs1 [T386, 2-(2-(ethylsulfonamido)thiazol-4-yl)-2-methyl-N-(4-(pyridin-3-yl)phenyl)propanamide]
37 | < 100 nM | CCOc1cncc(-c2ccc(NC(=O)C(C)(C)c3csc(NS(=O)(=O)CC)n3)nc2)n1 [T382, N-(5-(6-ethoxypyrazin-2-yl)pyridin-2-yl)-2-(2-(ethylsulfonamido)thiazol-4-yl)-2-methylpropanamide]
38 | 100 to 1000 nM | CCC(C(=O)Nc1ccc(-c2cncc(C(C)(C)OC)n2)cc1)c1csc(NS(=O)(=O)C2CC2)n1 (centres unmarked) [T406, 2-(2-(cyclopropanesulfonamido)thiazol-4-yl)-N-(4-(6-(2-methoxypropan-2-yl)pyrazin-2-yl)phenyl)butanamide]
39 | 100 to 1000 nM | CCOc1cncc(-c2ccc(NC(=O)C(C)(C)c3nc(NS(=O)(=O)C4CC4)sc3Cl)cc2)n1 [T376, 2-(5-chloro-2-(cyclopropanesulfonamido)thiazol-4-yl)-N-(4-(6-ethoxypyrazin-2-yl)phenyl)-2-methylpropanamide]
40 | < 100 nM | CCOc1cncc(-c2ccc(NC(=O)C(C)(C)c3csc(NS(=O)(=O)C4CC4)n3)c(C(F)(F)F)c2)n1 [T347, 2-(2-(cyclopropanesulfonamido)thiazol-4-yl)-N-(4-(6-ethoxypyrazin-2-yl)-2-(trifluoromethyl)phenyl)-2-methylpropanamide]
41 | < 100 nM | CCOc1cncc(-c2ccc(NC(=O)C(CC)c3csc(NS(=O)(=O)C4CC4)n3)c(OC)c2)n1 (centres unmarked) [T443]
